Laboratory results published in patent US20180344725A1, “QUINOLONE CHALCONE COMPOUNDS AND USES THEREOF” (priority 2015, published 2018).

Key:
MCF-7 = test: SRB-based cytotoxicity assay; format: cell-based, human; conditions: Homo sapiens, MCF7; MCF-7; SRB; Table 2
Protocol: (§1) For (anti)proliferation assays, 4,000-5,000 cells/well of the 96-well clustered dish were incubated for 16 hours, as described previously (Hu et al., 2008; Skehan et al., 1990). After 16 hours, culture medium was replaced with fresh medium containing different dilutions of test compounds dissolved in DMSO. Some wells were treated with 100 μl of 10% trichloroacetic acid (TCA) as a negative control and sham (medium with dimethyl sulfoxide; DMSO) treated cells were used as a positive control. After 72 hours post-incubation, medium was removed and cells were fixed with 10% TCA at 4° C. for 1 hour. TCA was removed and cells were washed with cold tap water, and plate was air-dried, followed by addition of 50 μl of 0.4% SRB staining solution to each well. After 30 minutes incubation, SRB staining solution was removed. Cells were washed with 1% acetic acid solution, and then washed with tap water to remove unbound staining solution, followed by air-drying. 200 μl of 10 mM (pH10.5) trizma base buffer was added to each well to solubilise macromolecules. SRB stained macromolecules were determined at a 540 nm wavelength using an automated plate reader (Synergy H4 Hybrid Multi-Mode Microplate Reader, BioTek, Winooski, Vt.). Cell growth (inhibition) was calculated by the following formula:
(§2) % cells proliferation=[(AT−CT)/(ST−CT)]×100
(§3) wherein AT=absorbance of treated cells, CT=absorbance of negative control cells, and ST=absorbance of sham treated cells. IC50 values were calculated from sigmoidal dose-response curves generated by two independent biological replicates, with quadruplicate in each set by using Graph Pad Prism v.5.04 software. […] The combinational index (CI) was calculated as described previously (Chou 2006). If the CI values were less than, equal to or more than 1, it indicates a synergistic, additive or antagonistic effect respectively (Chou 2006). CI values were determined from four independent experiments.

MDA-MB-231 = test: SRB-based cytotoxicity assay; format: cell-based, human; conditions: for IC50: Homo sapiens, MDA-MB-231, SRB, Table 2; for Cell survival rate: MDA-MB231
Protocol: as §1, §2, §3

MDA-MB-468 = test: SRB-based cytotoxicity assay; format: cell-based, human; conditions: for IC50: Homo sapiens, MDA-MB-468, SRB, Table 2
Protocol: as §1, §2, §3

Body weight analysis = format: in vivo; conditions: ATH490 athymic mice; D0-D30
Protocol: Animals were monitored for food and water consumption every day, and their body weights and tumor volumes were measured twice per week. Tumor volumes were measured with a digital caliper and were determined by using the following formula: ½ length×width^2. Blood samples were collected via cardiac puncture and processed further for ALT and AST measurements. The animals were then immediately euthanized by carbon dioxide. Tumors and vital organs (spleen, kidney, liver and lung) were collected and fixed in 10% buffered formalin at 4° C. overnight before being processed for paraffin embedding. The paraffin-embedded blocks were then cut into 4-5 μm thick sections. Each section of tumors and organs was stained with hematoxylin and eosin (H&E).
Changes in body weight, hemoglobin (Hb) and the amount and ratio of alanine transaminase (ALT)/aspartate transaminase (AST) were used to measure toxic effects. In addition, vital organs (liver, spleen, kidney and lung) were analyzed by […] after they were harvested, fixed, processed, paraffin-embedded, sectioned, and stained as described above.
. Six-week old ATH40 athymic nude mice were treated as indicated in the legend. “Tax” denotes that paclitaxel was injected by i.v. as described in Table 11. D0-D30 denotes day 0 to day 30 post-drug treatment. The numbers in brackets show drug concentrations in mg/kg body weight. […]

HeLa cells = test: Cell cycle analysis by flow cytometry; format: cell-based; conditions: 6-72 hours
Protocol: Approximately 1×10^6 cells per plate were seeded and grown overnight. Cells were then treated the next morning with test compounds, and harvested at the scheduled post-treatment times. The cell pellet was collected by centrifugation at 1,100 rpm (Allegra™ X-12 centrifuge, Beckman Coulter, Indianapolis, Ind.), followed by washing the cells twice with PBS, and fixing them with 75% ethanol for 12-24 hours at −20° C. Ethanol was removed by centrifugation at […] (Allegra™ X-12 centrifuge, Beckman Coulter); cells were suspended in PBS and centrifuged again at […] in the same rotor. The PBS was then removed and the cell pellet was resuspended and stained for 1 hour with propidium iodide (PI) staining solution (0.3% nonidet P-40, 100 μg/ml RNase A and 100 μg/ml PI in PBS). The DNA content in the different phases of the cell cycle was analysed by flow cytometry using Beckmann Coulter Cytomics FC500 (Mississauga, ON, Canada). The reversibility of drug effects was determined as follow: HeLa cells treated with a CTR compound for 12 hours were washed twice with 1×PBS, and then released them into pre-warmed drug-free complete medium for scheduled durations. The cells were then examined by confocal microscopy for their morphology or subjected to cell cycle analysis by flow cytometry after cells (DNA) were stained with propidium iodide.

COc1ccccc1C(=O)/C=C/c1cc2ccccc2[nH]c1=O [CTR-17, (E)-3-(3-(2-Methoxyphenyl)-3-oxoprop-1-enyl)quinolin-2(1H)-one]
IC50 (MCF-7): 520 ± 170 nM | IC50 (MDA-MB-231): 410 ± 20 nM | IC50 (MDA-MB-468): 150 ± 330 nM | preferentially kill cancer over non-cancer cells (MDA-MB-468; MDA-MB-468 versus MCF-10A): up to 26 times | toxic side effect as determined by the changes in body weights (Body weight analysis): Neither CTR-17 nor CTR-20 caused any notable toxic side effect

COc1ccccc1C(=O)/C=C/c1cc2cccc(OC)c2[nH]c1=O [CTR-21, (E)-8-methoxy-3-(3-(2-methoxyphenyl)-3-oxoprop-1-enyl) quinolin-2(1H)-one]
concentrations that caused mitotic arrest and, eventually, cell death (HeLa cells): > 60 nM

COc1ccc2[nH]c(=O)c(/C=C/C(=O)c3ccccc3OC)cc2c1 [CTR-20, (E)-6-Methoxy-3-(3-(2-methoxyphenyl)-3-oxoprop-1-enyl) quinolin-2(1H)-one]
IC50 (MCF-7): 140 ± 60 nM | IC50 (MDA-MB-231): 120 ± 90 nM | Cell survival rate (MDA-MB-231; single agent 0.1 μM): 70.86 ± 4.17 | Cell survival rate (MDA-MB-231; single agent 0.2 μM): 41.07 ± 4.58 | Cell survival rate (MDA-MB-231; single agent 0.4 μM): 26.38 ± 4.73 | IC50 (MDA-MB-468): 120 ± 20 nM | toxic side effect as determined by the changes in body weights (Body weight analysis): Neither CTR-17 nor CTR-20 caused any notable toxic side effect

CCOc1ccccc1C(=O)/C=C/c1cc2ccccc2[nH]c1=O [CTR-32, (E)-3-(3-(2-ethoxyphenyl)-3-oxoprop-1-enyl)quinolin-2(1H)-one]
concentrations that caused mitotic arrest and, eventually, cell death (HeLa cells): > 50 nM
